Where “and” joins values, the source holds several entries; their conditions need not be identical. Equal entries are not always repeated. Entries after “also recorded” stand apart in the source; their conditions may differ.
How the values were obtained:
[1] = test system: lysolecithin-demyelinated cerebellar explants; assay: Myelin regeneration in lysolecithin-demyelinated cerebellar explants; type: cell-based, mouse; settings: 1 μM, 10 additional days after lysolecithin
Protocol: Myelination-demyelination-remyelination studies in cerebella organotypic cultures were carried out. In brief, after careful dissection to keep the tissue intact, cerebella of postnatal day 4-7 wild type or Plp-EGFP mouse pups was sectioned at 400-μm thickness using a Leica VT1000S vibratome. Cerebella sections were then plated on insert plates and a few droplets of high-glucose media were added to cover the tissue during the first 6 hours to allow attachment of the slices to the insert plate surface. Media used was 50% DMEM/F12, 25% Hank's buffered salt solution (both from Gibco), 25% horse serum, 5 mg/ml glucose and a combination of streptomycin/penicillin (Gibco). When the slices were firmly attached, fresh media was added to cover the tissue and the cultures were maintained in this conditions during 4-10 days. To induce demyelination, 0.5 mg/ml lysolecithin (I′-monoacyl-L-3-glycerylphosphorylcholine, Sigma) was added to the culture media for 17 hrs. After this time, the culture media was changed and treatments were performed by adding small molecules or DMSO controls to the plates for 4-10 additional days. Demyelination-remyelination was assessed by green fluorescence (Plp-EGFP) or immunostaining for myelin-axonal proteins and visualization was performed by confocal microscopy.
Acute demyelination of cerebellum tissue explants has been previously used as a reliable methodology to study myelin formation and regeneration Taking advantage of our Pip-EGFP mouse, which allowed for the accurate tracking of oligodendrocyte cell behavior during myelination/demyelination/remyelination and the cerebellar explants methodology, we analyzed the effect of compounds A, A-7 and B or oligodendrocyte cells and myelin regeneration after demyeliantion of the cerebellar explants with lysolecithin. Cerebellum from postnatal day 7 mice pups (P7) was sectioned and maintained in culture (see methods). […]

[2] = test system: cuprizone-fed C57B1/6J mice; assay: Myelin protein (PLP/DM20, MOG) immunostaining densitometry in cuprizone-demyelinated mice; type: in vivo; settings: i.p., two doses
Protocol: For in vivo experiments in mice, the cuprizone-mediated demyelination model was implemented as described elsewhere, (Sun et al., 2006; Wu et al., 2008). In brief, 9 week-old C57B1/J6 mice were fed with cuprizone supplemented chow (0.3%, Harlan) during 4-6 weeks. At the end of this period, while the mice were still on cuprizone diet, the animals were injected I.P. with the indicated concentrations of small molecules dissolved in DMSO. 72 hrs later, a second dose was administered and at that point the food was changed to regular chow. 48 hr after the second dose, the animals were sacrificed perfused with 4% paraformaldehyde (PFH) and the brain tissue processed or immunohistochemistry.
Immunodetection of oligodendrocyte and myelin markers was performed. In brief, Oligodendrocyte cells plated on PDL-coated dishes were initially fixed in 2% paraformaldehyde (PFA) for 10 min at room temperature (RT) and then 4% PFA for 15 min, washed three times with PBS and permeabilized with 0.1% Triton X100 for 10 min at RT. After blocking with 3% BSA in PBS for 60 min a RT, the cells were incubated with primary antibodies at the indicated concentrations overnight (ON) at 4° C. The cells were washed three times with cold PBS incubated with secondary antibodies for 45 min at RT, and washed again before mounting. Immunostaining of tissue sections prepared with a sliding microtome (30 μm) was performed. In brief, tris buffered saline (TBS) containing 100 nM Sodium fluoride (TBSS) was used the all dilutions and washes. For antigen retrieval, sections were washed 3 times in TBSS, incubated in 5% methanol and 3% H2O2 for 10 min, washed 2 times, and then incubated in 10% Triton X-100 for 20 min. Blocking of unspecific bonds was performed by incubating the tissue sections with 10% NGS for 1 hr. Primary antibodies were diluted in 3% BSA containing 0.02% Triton X-100 and sections were incubated overnight in this solution. The next day the sections were washed 3 times in TBSS, followed by 1 hr incubation in secondary antibodies (1:1000) at 4° C. […]

[3] = test system: oligodendrocyte progenitor cells; assay: Immunocytochemistry for PLP/DM20 and MBP, count of differentiated cells; type: cell-based, mouse; settings: for cell morphology after long-term exposure: compound B at the lowest concentrations (0.1 μM)
Protocol: Immunodetection of oligodendrocyte and myelin markers was performed. In brief, Oligodendrocyte cells plated on PDL-coated dishes were initially fixed in 2% paraformaldehyde (PFA) for 10 min at room temperature (RT) and then 4% PFA for 15 min, washed three times with PBS and permeabilized with 0.1% Triton X100 for 10 min at RT. After blocking with 3% BSA in PBS for 60 min a RT, the cells were incubated with primary antibodies at the indicated concentrations overnight (ON) at 4° C. The cells were washed three times with cold PBS incubated with secondary antibodies for 45 min at RT, and washed again before mounting. Immunostaining of tissue sections prepared with a sliding microtome (30 μm) was performed. In brief, tris buffered saline (TBS) containing 100 nM Sodium fluoride (TBSS) was used the all dilutions and washes. For antigen retrieval, sections were washed 3 times in TBSS, incubated in 5% methanol and 3% H2O2 for 10 min, washed 2 times, and then incubated in 10% Triton X-100 for 20 min. Blocking of unspecific bonds was performed by incubating the tissue sections with 10% NGS for 1 hr. Primary antibodies were diluted in 3% BSA containing 0.02% Triton X-100 and sections were incubated overnight in this solution. The next day the sections were washed 3 times in TBSS, followed by 1 hr incubation in secondary antibodies (1:1000) at 4° C. After several washes, the sections were mounted using Vectashield (Vector Laboratories, Burlingame, Calif.). Visualization of immunostained cells and tissue was performed on a Leica DMR (Wetzlar, Germany) or a Leica SP5 confocal microscope.
The primary screening to select positive compounds was performed at a standard concentration of 10 μM with cell morphology analysis 48 hrs after treatment. Dose response curves at 48 hrs treatment time were performed to determine the minimum concentration compounds A, A-7 and B needed to induce cell maturation. We assessed oligodendrocyte differentiation by cell morphology changes, green fluorescence in cells generated from or Plp-EGFP transgenic mouse, immunostaining for myelin proteins and western blot for expression of the oligodendrocyte markers PLP/DM20 and 2′,3′, cyclic nucleotide 3′ phosphohydrolase (CNPase). EC50 values were also calculated based on results of western blot for myelin proteins and subsequent band densitometry analysis. Additionally, we followed cell differentiation induced over long time exposure to compounds A and B (7 days, 0.1-10 μM).
Compound A-7-induced oligodendrocyte progenitor maturation was also analyzed in comparison to control cells in immunostaining experiments to detect the myelin proteins MBP and PLP. Positive cells for these markers showing processes formation and membranous structures were counted versus total cells and counterstained with the nuclear dye Dapi after 48 hrs (Tables 3 and 4) and 7 days treatment with 0.1, 1 or 10 μM compound A-7 (FIG. 2, B).

Row | Compound | oligodendrocyte cell recovery and myelin regeneration [1] | effect on myelin protein expression / remyelination enhancement [2] | immunostaining for PLP and MBP: expression of myelin proteins ([3]; 10 μM, 48 hr (FIG. 1)) | differentiated cells, percentage of total cells ([3]; 7 days after treatment, 0.1-10 μM, control 9.5%) | cell morphology after long-term exposure ([3]; 7 days after treatment) | Differentiated Cells (IC, % of Control) ([3]; Table 3, 10 μM, 48 hrs) | Differentiated Cells (IC, % of Control) ([3]; Table 4, 1 μM) | Differentiated Cells (IC, % of Control) ([3]; Table 4, 10 μM) | percentage of differentiated cells compared to A treated cells ([3]; 10 μM) | concentration at which induction of oligodendrocyte differentiation reached maximum levels ([3]; 48 hrs and 7 days treatment) | Differentiated Cells (IC, % of Control) ([3]; Table 3, 10 μM, 48 hrs, 10 µM) | Differentiated Cells (IC, % of Control) ([3]; Table 3, 10 μM, 48 hrs, listed as drawing 48, 10 µM) | Differentiated Cells (IC, % of Control) ([3]; Table 4, 1 μM, 1 µM) | percentage of mature cells ([3]; 7 days, 10 μM)
1 | CCS(=O)(=O)N1CCN(C(=O)COc2ccc(-c3ccccc3)cc2)CC1 [Compound A, 1-[(4-biphenylyloxy)acetyl]-4-(ethylsulfonyl)piperazine] | remarkable oligodendrocyte cell recovery; also recorded: evident oligodendrocyte cell recovery and myelin regeneration | recovery of myelin protein expression | increased expression | about 25% | clear morphology changes; also recorded: formation of long-thick processes and major membranous structures | 186.1 ± 44.8 n = 4; p <0.05 % of Control | 248.9 ± 47.5 % of Control | 289.3 ± 66.6 % of Control |  |  |  |  |  | 
2 | CC(C)N1CCN(C(=O)COc2ccc(-c3ccccc3)cc2)CC1 [Compound A-7, 1-(Biphenyl-4-yloxy)acetyl-4-isopropylpiperazine] | remarkable oligodendrocyte cell recovery; also recorded: evident oligodendrocyte cell recovery and myelin regeneration | recovery of myelin protein expression |  |  | formation of long-thick processes and major membranous structures |  |  | 296 ± 38.06 % of Control | 159.1% | 0.1 µM | 296.1 % of Control | 296.1 ± 19 n = 4; p <0.05 % of Control | 343 % of Control and 343.2 ± 52.3 % of Control | 
3 | O=[N+]([O-])c1ccc(F)c(NS(=O)(=O)c2ccc(F)cc2)c1 [Compound B, 4-fluoro-N-(2-fluoro-5-nitrophenyl)benzenesulfonamide] | remarkable oligodendrocyte cell recovery; also recorded: evident oligodendrocyte cell recovery and myelin regeneration | did not detect any relevant effect |  |  | clear morphology changes; also recorded: formation of long-thick processes and major membranous structures |  |  |  |  |  |  |  |  | dropped to control levels
